Measured values reported in US20230312639A1, “GPER PROTEOLYTIC TARGETING CHIMERAS” (University of Iowa Research Foundation, priority 2020, published 2023).

Tests used:
HiBiT-ERα = target: T1, HiBiT-ERα (Homo sapiens, UniProt P03372); assay: Nano-BiT binary luminescence complementation, transfected HEK-293 cells, total receptor; format: cell-based
T1 sequence (P03372 1-595): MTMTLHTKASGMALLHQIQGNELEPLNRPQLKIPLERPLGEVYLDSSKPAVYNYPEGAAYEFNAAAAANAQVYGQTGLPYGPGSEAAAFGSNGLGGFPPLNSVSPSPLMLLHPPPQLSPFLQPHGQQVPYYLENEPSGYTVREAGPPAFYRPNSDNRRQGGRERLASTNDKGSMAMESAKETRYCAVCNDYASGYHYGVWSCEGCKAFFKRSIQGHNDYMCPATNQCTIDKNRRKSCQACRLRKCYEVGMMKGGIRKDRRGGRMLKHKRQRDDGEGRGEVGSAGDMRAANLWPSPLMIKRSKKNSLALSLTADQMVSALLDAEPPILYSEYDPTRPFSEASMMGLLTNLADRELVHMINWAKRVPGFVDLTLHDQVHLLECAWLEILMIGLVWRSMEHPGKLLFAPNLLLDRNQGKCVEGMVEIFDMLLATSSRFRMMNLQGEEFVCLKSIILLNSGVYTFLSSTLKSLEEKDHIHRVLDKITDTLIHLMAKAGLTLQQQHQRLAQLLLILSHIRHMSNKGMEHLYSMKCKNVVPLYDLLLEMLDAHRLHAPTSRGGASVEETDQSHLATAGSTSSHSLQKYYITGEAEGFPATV
Experimental: FIG. 26. […] HEK-293 cells (ERα^-, GPER^-) were transiently transfected with 50 ng HiBiT-GPER or HiBiT-ER plus pcDNA3.1(+) zeo carrier plasmid. […] Results shown represent the mean ± S.E. of three independent experiments.
FIG. 28. […] Total receptor was then measured by binary luminescence complementation in detergent-permeabilized cells. […] Total receptor was then quantified by binary luminescence complementation. Representative luminescence data and mean values and SDs derived from three independent experiments are shown.
Transient transfections and binary Nano-Bit ™ luminescence assays. Total HiBiT-tagged GPER or ER estrogen receptors were detected in detergent-permeabilized cells by binary luminescence complementation with recombinant LgBit and substrate using the Nano-Glo HiBiT Extracellular Detection system kit (Promega Corporation, Madison, Wl). In brief, HEK293 cells (0.75 × 10^6) were seeded in 35 mm tissue culture dishes and 24 hours later were transiently transfected with 50 ng of HiBiT-GPER or HiBiT-ERa and 950 ng of pcDNA3.1(+) zeo carrier plasmid using Lipofectamine 2000 (Invitrogen, Carlsbad, CA). The next day transfected cells were harvested by trypsinization and seeded at a density of 10^4 cells/well in 96-well poly-L-lysine-coated Greiner white-bottomed microplates. On the following day, cell culture media was aspirated and replaced with 100 µL of serum-free PRF-DF12 containing E2-PROTAC, partial-PROTAC, or vehicle at various concentrations and for indicated time intervals at 37° C. […] Following treatment, total HiBiT-tagged receptor was measured in cells which were permeabilized in 0.05% Triton X-100 using HiBiT complementation reagent consisting of LgBiT protein and Nano-Gio® HiBiT substrate. Luminescence was measured using the Infinite 200 PRO multimode microplate reader from Tecan (Raleigh, NC) and reported as Relative Luminescent Units (RLU). All samples were measured in triplicate and expressed as the mean value plus or minus standard deviation.

HA-GPER = target: T2, HA-GPER (Homo sapiens, UniProt Q99527); assay: Immunofluorescence with HA antibody, stably transfected HEK293 cells; format: cell-based; conditions: 100 µM, 1 hour
T2 construct: expressed in transfected cells

ERα = target: T3, ERα (Homo sapiens, UniProt P03372); assay: Immunostaining of endogenous receptors in MCF-7 cells; conditions: MCF-7, 1 hour
T3 sequence (P03372 1-595): T1 sequence (P03372 1-595)

SKBR3 cells = assay: Cell viability assay, 24 hour treatment; format: cell-based, human; conditions: SKBR3, 24 hours, mean ± SD
Experimental: (§1) Cell cytotoxicity assays. […] In brief, breast cancer cells were seeded in 96 well-plates at a density of 10^4 cells/well in growth media. On the following day, the contents of the 96 well plates were aspirated and replaced by treatment at different concentrations (ranging from 10^-9 to 10^-3 M), followed by the addition of media to bring the total volume to 200 µL/well. The untreated control group was incubated with 200 µL/well of fresh media. One day later, the media were aspirated and replaced by 90 µL media + 10 µL Prestoblue reagent, followed by incubation at 37° C. for 1 h. The fluorescence was excited at 560 nm and emission was recorded at 590 nm using a Spectra Max plus 384 Microplate Spectrophotometer (Molecular Devices, Sunnyvale, CA). Relative cell viability values were expressed as the percentage of the fluorescence recorded from wells containing treated cells compared to the control wells containing untreated cells.
(§2) Each breast cancer cell line was treated for 24 hours with various concentrations of E2-PROTAC or partial PROTAC and then cell viability was assessed using an MTS assay that measures mitochondrial oxido-reductase enzymes capable of converting a tetrazolium salt to a formazan dye (summarized in Table 2). […] These IC50 values were similar to those measured for cells treated with partial PROATAC.

MDA-MB-231 cells = assay: Cell viability assay, 24 hour treatment; format: cell-based, human; conditions: MDA-MB-231, 24 hours
Experimental: as §1, §2

MCF-7 cells = assay: Cell viability assay, 24 hour treatment; format: cell-based, human; conditions: MCF-7, 24 hours, mean ± SD
Experimental: as §1, §2

HCC1806 cells = assay: Cell viability assay, 24 hour treatment; format: cell-based, human; conditions: HCC1806, 24 hours, mean ± SD
Experimental: as §1, §2

HA-b1AR = target: T4, HA-b1AR (Homo sapiens, UniProt P08588); assay: Immunofluorescence with HA antibody, stably transfected HEK293 cells; format: cell-based; conditions: 100 µM, 1 hour
T4 construct: expressed in transfected cells
T4 sequence (P08588 whole entry): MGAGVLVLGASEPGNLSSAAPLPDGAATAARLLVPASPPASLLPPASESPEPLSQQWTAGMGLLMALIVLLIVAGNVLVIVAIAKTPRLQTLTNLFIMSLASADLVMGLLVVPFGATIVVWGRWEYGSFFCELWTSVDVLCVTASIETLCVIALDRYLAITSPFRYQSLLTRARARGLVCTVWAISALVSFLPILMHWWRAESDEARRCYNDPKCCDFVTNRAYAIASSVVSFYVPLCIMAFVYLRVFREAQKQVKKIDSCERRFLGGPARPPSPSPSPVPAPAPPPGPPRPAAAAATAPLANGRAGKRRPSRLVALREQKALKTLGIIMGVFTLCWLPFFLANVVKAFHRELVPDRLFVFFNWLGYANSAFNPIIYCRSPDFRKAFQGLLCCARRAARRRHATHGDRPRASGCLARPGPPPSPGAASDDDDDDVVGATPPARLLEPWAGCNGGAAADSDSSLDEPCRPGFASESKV

T2 sequence (Q99527 whole entry): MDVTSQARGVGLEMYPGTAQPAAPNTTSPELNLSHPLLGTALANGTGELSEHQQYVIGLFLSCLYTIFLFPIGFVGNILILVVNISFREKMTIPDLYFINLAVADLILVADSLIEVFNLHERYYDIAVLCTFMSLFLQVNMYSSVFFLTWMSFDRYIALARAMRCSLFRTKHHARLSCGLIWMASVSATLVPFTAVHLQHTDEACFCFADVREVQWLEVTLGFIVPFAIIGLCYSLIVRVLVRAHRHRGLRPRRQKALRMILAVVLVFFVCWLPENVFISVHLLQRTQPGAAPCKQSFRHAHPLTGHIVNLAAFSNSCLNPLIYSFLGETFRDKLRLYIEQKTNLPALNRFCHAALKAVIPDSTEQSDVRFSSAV

For `Cc1ncsc1-c1ccc(CNC(=O)C2CC(O)CN2C(=O)C(NC(=O)COCCOCCOCCOCC(=O)OC2CCC3C4CCc5cc(O)ccc5C4CCC23C)C(C)(C)C)cc1` (stereo not drawn) [UI-EP001], the “reduction in expression level of recombinant ER” value (HiBiT-ERα; 100 µM, as early as 1 h) was 50%, the “change of HiBiT-ERα” value (HiBiT-ERα; increasing doses, 1 hour, partial PROTAC 100 µM) was “dose-dependent decrease” and the “degradation of HA-GPER” value (HA-GPER) was “specific degradation of HA-GPER was measured”. For the same compound, the “nuclear ERα expression” value (ERα) was “Clear site-specific reduction”, the IC50 (SKBR3 cells) was 10.9 ± 1.2 µM and the IC50 (MDA-MB-231 cells) was greater than 100 µM. The IC50 (MCF-7 cells) was 9 ± 1.2 µM, the IC50 (HCC1806 cells) was 34.9 ± 1.2 µM and the “off-target degradation of HA-b1AR” value (HA-b1AR) was “without detectable off-target degradation”.
